One data set relates to MCF7-Tead cell line. As to the kind of experiment: TEAD reporter assay. In kind it is cell-based. To be noted: MCF7-Tead cells, luciferase activity after 24 hours. A general note: A reporter such as luciferase makes a cellular process visible.
Data set [1] in a line: Protein binding measurements in human plasma (Hu PPB). In kind it is in vitro ADME. The note with it: equilibrium dialysis for 18 hours, fraction unbound. The procedure: The automated equilibrium dialysis assay in human plasma uses the RED (Rapid Equilibrium Dialysis) Device and sample handling. The assay generally runs over two to three days including delivery of results. After dialysis for 18 hours, plasma and buffer samples are prepared for analysis by liquid chromatography and mass spectrometry. Samples are generally tested in singlicates and quantified by LC/MSMS by using a 7-point calibration curve in plasma. The compounds are pooled together in plasma pools up to 10 compounds. Three reference compounds are used in each run, Propranolol, Metoprolol and Warfarin. Warfarin is used as a control in each pool and Propranolol and Metoprolol are placed randomly in each run. An in-house Excel macro is used for preparation of files for the robot and the mass spectrometer and is also used for the calculations of fraction unbound (fu %) in plasma.
On the technique in general: Equilibrium dialysis compares concentrations on both sides of a semipermeable membrane.

The test system of data set [2] is MCF7-Luciferase cell line. As to the kind of experiment: Control reporter (MCF7-Luciferase). Format: cell-based. The note with it: MCF7-Luciferase cells, luciferase activity after 24 hours.
Data set [3] can be described thus: Solubility (thermodynamic, shake-flask). The note with it: thermodynamic from solid; aqueous phosphate buffer (pH 7.4), 24 hours at 25° C. In kind it is physicochemical. The method, boiled down:
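Shake-flask method starting from 10 mM DMSO stocks, which are dried before use. Residue equilibrated 24 h at 25° C. in aqueous phosphate buffer, pH 7.4. Dissolved fraction separated and quantified by UPLC/MS/MS, with QC samples in each run.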

A further data set deals with TEAD4(217-434) (Homo sapiens (Human), UniProt Q15561). As to the kind of experiment: TEAD4 FRET. In kind it is binding. The note with it: depalmitoylated, biotinylated TEAD4(217-434), FAM labelled Probe A, 120 min at 25° C.

The structures appear in SMILES notation. Converted amounts (≈) assume the structure as drawn. A value given as a limit tells only on which side of the number the result lay.

Sequence of TEAD4(217-434) (Q15561 217-434): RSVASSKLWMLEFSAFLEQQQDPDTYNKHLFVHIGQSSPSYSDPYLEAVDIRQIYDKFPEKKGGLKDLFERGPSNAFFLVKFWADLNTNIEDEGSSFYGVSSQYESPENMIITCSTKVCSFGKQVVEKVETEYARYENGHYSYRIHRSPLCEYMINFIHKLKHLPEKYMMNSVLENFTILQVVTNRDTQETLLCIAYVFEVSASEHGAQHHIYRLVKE

In general, IC50 refers to the concentration that inhibits the measured activity by half. A lower IC50 goes with inhibition by little substance. A word on the solubility: it is the concentration that dissolves in the medium under given conditions. Lower therefore signals little dissolved substance. In the case of `C=CC(=O)N1C[C@@H](CO)[C@H](Nc2ncc(-c3ccc(C(F)(F)F)cc3)c3ncccc23)C1` [Example 24, 1-((3R,4S)-3-(hydroxymethyl)-4-((8-(4-(trifluoromethyl)phenyl)-1,6-naphthyridin-5-yl)amino)pyrrolidin-1-yl)prop-2-en-1-one], the IC50 was 16 nM in the data set with MCF7-Tead cell line, above 31700 nM in data set [2] and 23 nM at TEAD4(217-434). In addition, the “Hu PPB (% free)” value in data set [1] turned out to be 1.9 % free. This molecule also gave a solubility at 24 h in data set [3] of 32 µM (≈ 14.2 µg/mL).

Regarding `C=CC(=O)N1C[C@@H](CO)[C@H](Nc2nnc(-c3ccc(C(F)(F)F)cc3)c3ncccc23)C1` [Example 25, 1-((3R,4S)-3-(hydroxymethyl)-4-((8-(4-(trifluoromethyl)phenyl)pyrido[2,3-d]pyridazin-5-yl)amino)pyrrolidin-1-yl)prop-2-en-1-one], the IC50 is 25 nM in the data set with MCF7-Tead cell line, above 31700 nM in data set [2] and 57 nM against TEAD4(217-434). For the same molecule, in data set [1], the “Hu PPB (% free)” value amounted to 12.0 % free. The solubility at 24 h in data set [3] amounted to 32 µM (≈ 14.2 µg/mL).

With `C=CC(=O)N1C[C@@H](CO)[C@H](Nc2nnc(-c3ccc(C(F)(F)F)cc3)c3cccnc23)C1` [Example 26, 1-((3R,4S)-3-(hydroxymethyl)-4-((5-(4-(trifluoromethyl)phenyl)pyrido[2,3-d]pyridazin-8-yl)amino)pyrrolidin-1-yl)prop-2-en-1-one], the results for the IC50 (with MCF7-Tead cell line; in data set [2]; against TEAD4(217-434)) were 42 nM, above 31700 nM and 76 nM, respectively. For the same molecule, in data set [1], the “Hu PPB (% free)” value stood at 26.0 % free. This molecule also gave a solubility at 24 h in data set [3] of 175 µM (≈ 77.6 µg/mL).

Turning to `C=CC(=O)N1C[C@@H](CO)[C@H](Nc2ncc(-c3ccc(C(F)(F)F)cc3)c3nccnc23)C1` [Example 27, 1-((3R,4S)-3-(hydroxymethyl)-4-((8-(4-(trifluoromethyl)phenyl)pyrido[3,4-b]pyrazin-5-yl)amino)pyrrolidin-1-yl)prop-2-en-1-one], the 50% inhibitory concentration (IC50) with MCF7-Tead cell line is 23 nM; in data set [2], above 31700 nM; against TEAD4(217-434) it was 29 nM. Moreover, in data set [1], the “Hu PPB (% free)” value is listed as 6.0 % free. The molecule also came in with a solubility at 24 h in data set [3] of 63 µM (≈ 27.9 µg/mL).

For `C=CC(=O)N1C[C@@H](COC)[C@H](Nc2nnc(-c3ccc(C(F)(F)F)cc3)c3ccccc23)C1` [Example 28, 1-((3R,4S)-3-(methoxymethyl)-4-((4-(4-(trifluoromethyl)phenyl)phthalazin-1-yl)amino)pyrrolidin-1-yl)prop-2-en-1-one], the IC50 in the data set with MCF7-Tead cell line was 71 nM; in data set [2], above 31700 nM; at TEAD4(217-434), 61 nM. Further, the “Hu PPB (% free)” value in data set [1] amounted to 3.9 % free. Also, in data set [3], the solubility at 24 h amounted to 168 µM (≈ 76.7 µg/mL).

For `C=CC(=O)N1C[C@H](O)[C@H](Nc2nnc(-c3ccc(C(F)(F)F)cc3)c3ncccc23)C1` [Example 32, 1-((3S,4R)-3-hydroxy-4-((8-(4-(trifluoromethyl)phenyl)pyrido[2,3-d]pyridazin-5-yl)amino)pyrrolidin-1-yl)prop-2-en-1-one], the IC50 in the data set with MCF7-Tead cell line is 65 nM; in data set [2] it was above 31700 nM; against TEAD4(217-434), 42 nM. The “Hu PPB (% free)” value in data set [1] worked out at 16.0 % free. This molecule also came in with a solubility at 24 h in data set [3] of 52 µM (≈ 22.3 µg/mL).

Turning to `C=CC(=O)N1C[C@H](O)[C@H](Nc2nnc(-c3ccc(C(F)(F)F)cc3)c3cccnc23)C1` [Example 33, 1-((3S,4R)-3-hydroxy-4-((5-(4-(trifluoromethyl)phenyl)pyrido[2,3-d]pyridazin-8-yl)amino)pyrrolidin-1-yl)prop-2-en-1-one], the figures for the IC50 (with MCF7-Tead cell line; in data set [2]; at TEAD4(217-434)) were 107 nM, above 31700 nM and 68 nM, respectively. In addition, the “Hu PPB (% free)” value in data set [1] turned out to be 17.0 % free. The molecule also came in with a solubility at 24 h in data set [3] of 365 µM (≈ 157 µg/mL).

`C=CC(=O)N1C[C@@H](CO)[C@H](Nc2ncc(-c3ccc(C(F)(F)F)cn3)c3ncccc23)C1` [Example 37, 1-((3R,4S)-3-(hydroxymethyl)-4-((8-(5-(trifluoromethyl)pyridin-2-yl)-1,6-naphthyridin-5-yl)amino)pyrrolidin-1-yl)prop-2-en-1-one]: the concentration for half-maximal inhibition (IC50) with MCF7-Tead cell line was 33 nM; in data set [2] it was above 31700 nM; at TEAD4(217-434) it was 180 nM. Also, in data set [1], the “Hu PPB (% free)” value turned out to be 17.0 % free. For the same molecule, in data set [3], the solubility at 24 h was determined as 155 µM (≈ 68.7 µg/mL).

For the molecule `C=CC(=O)N1CC[C@H](Nc2ncc(-c3ccc(C(F)(F)F)cc3)c3ncccc23)C1` [Example 39, (S)-1-(3-((8-(4-(trifluoromethyl)phenyl)-1,6-naphthyridin-5-yl)amino)pyrrolidin-1-yl)prop-2-en-1-one], the IC50 with MCF7-Tead cell line was 5 nM; in data set [2], above 31700 nM; on TEAD4(217-434), 13 nM. Besides, in data set [1], the “Hu PPB (% free)” value came out at 1.4 % free. This molecule also showed a solubility at 24 h in data set [3] of 20 µM (≈ 8.25 µg/mL).

With `C=CC(=O)NC1(CNc2nnc(-c3ccc(C(F)(F)F)cc3)c3ccccc23)CCC1` [Example 41, N-(1-(((4-(4-(trifluoromethyl)phenyl)phthalazin-1-yl)amino)methyl)cyclobutyl)acrylamide], the IC50 with MCF7-Tead cell line is 152 nM; in data set [2], 21500 nM; at TEAD4(217-434) it was 72 nM. Further, the “Hu PPB (% free)” value in data set [1] came to 0.9 % free. In data set [3], this molecule showed a solubility at 24 h of 72 µM (≈ 30.7 µg/mL).

On to `C=CC(=O)NCC1(Nc2nnc(-c3ccc(C(F)(F)F)cc3)c3ccccc23)CCC1` [Example 42, N-((1-((4-(4-(trifluoromethyl)phenyl)phthalazin-1-yl)amino)cyclobutyl)methyl)acrylamide], for which the concentration for half-maximal inhibition (IC50) is 672 nM with MCF7-Tead cell line, 19600 nM in data set [2] and 70 nM against TEAD4(217-434). Further, the “Hu PPB (% free)” value in data set [1] is 0.8 % free. This molecule returned a solubility at 24 h in data set [3] of 19 µM (≈ 8.1 µg/mL).

Regarding `C=CC(=O)N1CC[C@H](Nc2ncc(-c3ccc(C(F)(F)F)cc3)c3nccnc23)C1` [Example 45, (S)-1-(3-((8-(4-(trifluoromethyl)phenyl)pyrido[3,4-b]pyrazin-5-yl)amino)pyrrolidin-1-yl)prop-2-en-1-one], the concentration for half-maximal inhibition (IC50) with MCF7-Tead cell line amounted to 11 nM; in data set [2] it was 19000 nM; at TEAD4(217-434), 12 nM. Further, the “Hu PPB (% free)” value in data set [1] is reported as 3.9 % free. In data set [3], this molecule displayed a solubility at 24 h of 13.6 µM (≈ 5.62 µg/mL).

On to `C=CC(=O)N1C[C@@H](Nc2nnc(-c3ccc(C(F)(F)F)cc3)c3ccccc23)C[C@@H]1CO` [Example 47, 1-((2R,4S)-2-(hydroxymethyl)-4-((4-(4-(trifluoromethyl)phenyl)phthalazin-1-yl)amino)pyrrolidin-1-yl)prop-2-en-1-one], for which the IC50 in the data set with MCF7-Tead cell line was determined as 17 nM; in data set [2], 20700 nM; at TEAD4(217-434), 42 nM. Further, in data set [1], the “Hu PPB (% free)” value is 8.3 % free. The molecule also gave a solubility at 24 h in data set [3] of 13 µM (≈ 5.75 µg/mL).

`C=CC(=O)N1C[C@@H](Nc2nnc(-c3ccc(C(F)(F)F)cc3)c3ccccc23)C[C@H]1CO` [Example 48, 1-((2S,4S)-2-(hydroxymethyl)-4-((4-(4-(trifluoromethyl)phenyl)phthalazin-1-yl)amino)pyrrolidin-1-yl)prop-2-en-1-one]: the IC50 in the data set on MCF7-Tead cell line was determined as 26 nM; in data set [2], 16100 nM; against TEAD4(217-434), 26 nM. Besides, the “Hu PPB (% free)” value in data set [1] is 5.9 % free. This molecule came in with a solubility at 24 h in data set [3] of 2.4 µM (≈ 1.06 µg/mL).

These data come from patent US20240116926A1, “HETEROAROMATIC COMPOUNDS” (AstraZeneca AB, priority 2022, published 2024).
